In brackets after ≈: the same amount, converted by molar mass. Where a SMILES comes first, the peptide text is derived from it. The star is where a group is joined. Lauroyl = CCCCCCCCCCCC(=O)*
Key:
E. coli (Ec, ATCC 25922) = experiment: microbe, parasite or virus in culture; format: cell-based, Escherichia coli; settings: for MIC: Escherichia coli, ATCC25922, Table 2, laboratory strain, read-out: MIC E. coli ATCC 25922 (from Table 1)
Description: (§1) All cyclic and linear peptides were screened for antibacterial activity against four Gram-positive strains: B. subtilis (Bs, ATCC 23857), C. glutamicum (Cg, ATCC 13032), S. aureus (Sa, ATCC 9144) and S. epidermidis RP62A (Se, ATCC 35984), and two Gram-negative strains: E. coli (Ec, ATCC 25922) and P. aeruginosa (Pa, ATCC 27853). The activity was assessed using a broth microdilution assay according to a modified CLSI-based method. Briefly, overnight bacterial cultures were grown in Mueller–Hinton (MH) broth medium (Difco Laboratories, Detroit, MI, USA) for 2 h at room temperature. The optical density (OD600) was measured, and the bacterial suspensions were adjusted to 2.5–3 × 10^4 CFU/mL in MH medium. The bacterial suspension (50 µL) was distributed in 96-well plates (Nunc, Roskilde, Denmark) preloaded with two-fold dilution series (256 to 1 µg/mL) of peptide solutions (50 µL), giving a final well volume of 100 µL. The microplates were incubated in an EnVision 2103 microplate reader (PerkinElmer, Llantrisant, UK) at 35 °C, with OD595 recorded every hour for 24 h. MIC was defined as the lowest concentration of peptides showing an optical density less than 10% of the negative (growth) control, consisting of bacterial suspension and water. Polymyxin B sulfate (Sigma-Aldrich, St. Louis, MO, USA) and chlorhexidine acetate (CHX, Fresenius Kabi, Halden, Norway), both with concentrations ranging from 12.5 to 0.09 μg/mL, served as positive (growth inhibition) controls. All peptides were tested in triplicate.

[1] = test system: E. coli MC4100 (wild type, WT); experiment: microbe, parasite or virus in culture; settings: Escherichia coli, read-out: MIC E. coli MC4100 (WT)
Description: as §1
(§2) MIC values were determined for all cyclic peptides against two E. coli strains: wild type (WT) MC4100 and the hyperpermeable variant NR698, having a deficient outer membrane. The NR698 strain, containing lptD4213/imp4213 mutation, was kindly provided by M. Grabowicz (Emory University School of Medicine, Rollins Research Center, Atlanta, GA, USA). The assay was performed in the same way as previously described for the antibacterial MIC assay.

[2] = test system: E. coli NR698 (outer membrane permeable mutant, imp4213); experiment: microbe, parasite or virus in culture; settings: Escherichia coli, read-out: MIC E. coli NR698 (mutant)
Description: as §1, §2

[3] = test system: human red blood cells (RBC); experiment: Haemolytic activity assay; format: cell-based
Description: The synthetized lipopeptides were screened for haemolytic activity against human red blood cells (RBC), in concentrations ranging from 500 to 3.9 μM, following a previously described protocol. In brief, haemolysis was determined using a heparinizied (10 IU/mL) fraction of freshly drawn human blood. A second fraction of blood, which was collected in test tubes containing ethylenediaminetetraacetic acid (EDTA, Vacutest, KIMA, Arzergrande, Italy), was used for determination of the hematocrit (hct). Plasma was removed from heparinized blood by washing three times with prewarmed phosphate-buffered saline (PBS) before being adjusted to a hematocrit of 4%. Peptides dissolved in dimethyl sulfoxide (DMSO) were further diluted with PBS to a final DMSO content of ≤1%. Triton X-100 (Sigma-Aldrich, St. Louis, MO, USA), used at a final concentration of 0.1%, served as a positive control for 100% haemolysis, whereas 1% DMSO in PBS buffer served as a negative control where no toxicity was detected. Duplicates of test solutions and erythrocytes, with 1% hct final concentration, were prepared in a 96-well polypropylene V-bottom plate (Nunc, Fischer scientific, Oslo, Norway). They were incubated under agitation at 37 °C and 800 rpm for 1 h. After centrifugation (5 min, 3000× g), 100 µL from each well were transferred to a flat-bottomed 96-well plate and absorbance was measured at 545 nm with a microplate reader (SpectraMax 190, Molecular Devices, San Jose, CA, USA). After subtracting PBS background, the percentage of haemolysis was calculated as the ratio of the absorbance in the peptide-treated and surfactant-treated samples. Three independent experiments were performed, and EC50 (the concentration giving 50% haemolysis) values are presented as averages.

[4] = test system: C. albicans (Ca, ATCC 10231); experiment: microbe, parasite or virus in culture; format: cell-based, Candida albicans; settings: ATCC 10231, 48 h
Description: (§3) The synthesized peptides were screened for antifungal activity against the molds A. pullulans (Ap) and Rhodotorula sp. (Rh) (both obtained from Professor Arne Tronsmo, The Norwegian University of Life Sciences, Ås, Norway) and the yeast C. albicans (Ca, ATCC 10231) as previously described. In short, fungal spores were grown in potato dextrose broth media (Difco) containing 2% D(+)-glucose (Merck, Darmstadt, Germany) at 25–30 °C while shaking at 200 rpm overnight. The cultures were diluted with a dextrose media containing glucose to a concentration of approx. 4 × 10^5 spores/mL. Aliquots of the cultures (50 µL) were transferred to 96 well microtiter plates preloaded with the synthetic peptides (50 µL) in two-fold serial dilutions (256 to 1 µg/mL). Polymyxin B and CHX (both with concentrations ranging from 12.5 to 0.09 μg/mL) served as positive antibiotic controls. The microtiter plates containing the fungal spores and the test peptides were incubated at room temperature for 48 h and OD600 was recorded using a Synergy H1 Hybrid microplate reader system (BioTek, Winooski, VT, USA). MIC was defined as the lowest peptide concentration showing an optical density less than 10% of the negative (growth) control. All experiments were performed in triplicate.

[5] = test system: S. aureus (Sa, ATCC 9144); experiment: microbe, parasite or virus in culture; format: cell-based, Staphylococcus aureus; settings: ATCC 9144, 24 h
Description: as §1

all bacterial strains = experiment: Antibacterial MIC assay, all bacterial strains together (range or geometric mean); format: cell-based
Description: The selectivity index (SI) of the peptides towards bacteria over eukaryotic cells was calculated using the geometric mean (GM) of the MIC values against all bacterial test strains, according to the method by Orlov et al.. The SI for each peptide was determined as the ratio of the RBC-EC50 value by the corresponding GM value. Larger SI values indicate greater selectivity for microbial cells. […] In general, the SI was higher against the Gram-positive bacteral strains than the Gram-negative strains. (Table S3). Overall, peptides displaying EC50 < 100 µg/mL were considered too haemolytic to be of interest for further exploration.
as §1

[6] = test system: Gram-negative bacterial strains (E. coli and P. aeruginosa); experiment: Antibacterial MIC assay, Gram-negative strains together (range or geometric mean); format: cell-based; settings: Table S3; MIC >256 set to 256
Description: as §1

[7] = test system: S. epidermidis RP62A (Se, ATCC 35984); experiment: microbe, parasite or virus in culture; format: cell-based, Staphylococcus epidermidis; settings: ATCC 35984, 24 h
Description: as §1

[8] = test system: Gram-positive bacterial strains; settings: Table S3; MIC >256 set to 256
Description: as §1

[9] = test system: P. aeruginosa (Pa, ATCC 27853); experiment: microbe, parasite or virus in culture; format: cell-based, Pseudomonas aeruginosa; settings: ATCC 27853, 24 h
Description: as §1

[10] = test system: C. glutamicum (Cg, ATCC 13032); experiment: microbe, parasite or virus in culture; format: cell-based, Corynebacterium glutamicum; settings: ATCC 13032, 24 h
Description: as §1

[11] = test system: fungi (A. pullulans, C. albicans, Rhodotorula sp.); experiment: Antifungal MIC assay, all fungi together (range or geometric mean); format: cell-based; settings: Table S3; MIC >128 set to 128
Description: as §3

Rhodotorula sp. (Rh) = experiment: microbe, parasite or virus in culture; format: cell-based; settings: 48 h
Description: as §3

[12] = test system: B. subtilis (Bs, ATCC 23857); experiment: microbe, parasite or virus in culture; format: cell-based, Bacillus subtilis; settings: ATCC 23857, 24 h
Description: as §1

A. pullulans (Ap) = experiment: microbe, parasite or virus in culture; format: cell-based, Aurobasidium pollulans; settings: 48 h
Description: as §3

CC1(C)S[C@@H]2[C@H](NC(=O)[C@H](N)c3ccccc3)C(=O)N2[C@H]1C(=O)O [Ampicillin, reference compound]
MIC (E. coli (Ec, ATCC 25922)): 8 µg/mL (≈ 22.9 µM) | MIC [1]: 8 µg/mL (≈ 22.9 µM)

O=C(N[C@H](CO)[C@H](O)c1ccc([N+](=O)[O-])cc1)C(Cl)Cl [Chloramphenicol, reference compound]
MIC (E. coli (Ec, ATCC 25922)): 1.8 µg/mL (≈ 5.57 µM) | MIC [2]: 3.1 µg/mL (≈ 9.59 µM) | MIC [1]: 12.5 µg/mL (≈ 38.7 µM)

CCCCCCCCCCCC(=O)N[C@@H](CS)C(=O)NCC(=O)N[C@@H](CCCCN)C(=O)N[C@@H](CCCCN)C(=O)N[C@@H](Cc1c[nH]c2ccccc12)C(=O)N[C@@H](Cc1c[nH]c2ccccc12)C(=O)NCC(=O)N[C@@H](Cc1c[nH]c2ccccc12)C(=O)N[C@@H](CCCCN)C(=O)N[C@@H](CS)C(=O)N[C@@H](CCCCN)C(=O)N[C@@H](CC(C)C)C(N)=O [Peptide C12-Turg-2, C12- CGKKWWGWKC KL-NH2] (Lauroyl-CGKKWWGWKCKL-NH2)
Selectivity index (SI) G- ([3]; Table S3, EC50/GM of Gram-negative strains, highest tested concentration used where EC50 above it): 2 | Selectivity index (SI) G+ ([3]; Table S3, EC50/GM of Gram-positive strains, highest tested concentration used where EC50 above it): 5 | Selectivity index (SI) Fungi ([3]; Table S3, EC50/GM of fungi, highest tested concentration used where EC50 above it): 1 | SI (selectivity index = EC50/GM) ([3]; haemolytic EC50 over GM of MIC against all bacterial strains, Table 1): 4 | Antimicrobial Activity (MIC) Fungi Ca [4]: 64 µg/mL | Antimicrobial Activity (MIC) Gram + Sa [5]: 16 µg/mL | GM (geometric mean of the MIC values against all bacterial strains) (all bacterial strains; Table 1, six bacterial strains): 14 µg/mL | GM of MIC Tot. bact. (all bacterial strains; Table S3, all bacterial test strains, MIC >256 set to 256): 14 µg/mL | GM of MIC G- [6]: 23 µg/mL | Antimicrobial Activity (MIC) Gram + Se [7]: 8 µg/mL | GM of MIC G+ [8]: 11 µg/mL | Antimicrobial Activity (MIC) Gram − Pa [9]: 32 µg/mL | Antimicrobial Activity (MIC) Gram + Cg [10]: 16 µg/mL | Antimicrobial Activity (MIC) Gram − Ec (E. coli (Ec, ATCC 25922); ATCC 25922, 24 h): 16 µg/mL | GM of MIC Fungi [11]: 40 µg/mL | Antimicrobial Activity (MIC) Fungi Rh (Rhodotorula sp. (Rh)): 32 µg/mL | Antimicrobial Activity (MIC) Gram + Bs [12]: 8 µg/mL | Antimicrobial Activity (MIC) Fungi Ap (A. pullulans (Ap)): 32 µg/mL

From PMC9696794, “Synthesis and Antimicrobial Activity of Short Analogues of the Marine Antimicrobial Peptide Turgencin A: Effects of SAR Optimizations, Cys-Cys Cyclization and Lipopeptide Modifications” (International Journal of Molecular Sciences, 2022)
